Source: patent publication US8895739B2, “Acylation of hindered amines and functionalized bis-peptides obtained thereby” (Temple University of the Commonwealth System of Higher …, priority 2008, dated 2014)

Experiments:
[1] = test system: Huh7 cells; assay: cell penetration by fluorescence microscopy, Huh7; format: cell-based, human
Method: (§1) The effect of the sub-micromolar HDM2 binding bis-peptide 1 in cell-culture was thereafter evaluated. The cell-penetrating capability of two of the functionalized bis-peptides was first examined. […] Bis-peptide 1 was then incubated with both Huh7 cells and HepG2 (human liver hepatoblastoma cells) and imaged.

[2] = test system: HepG2 cells; format: cell-based, human
Method: as §1

[3] = test system: p53; conditions: stated as known behaviour of HDM2 ligands; cited from earlier work

Row | Compound | cellular uptake and distribution [1] | cellular uptake and distribution [2] | cellular uptake ([1]; Huh7, 2 μM, 24 hours, fluorescence and confocal microscopy) | effect on p53 levels [3]
1 | CC(C)CN1C(=O)[C@@H]2C[C@@]3(CN2C(=O)[C@@]12C[C@H]1C(=O)N(Cc4ccc(Cl)c(Cl)c4)[C@]4(C[C@@H]5C(=O)N[C@@H](CCc6ccccc6)C(=O)N5C4)C(=O)N1C2)NC(=O)[C@@H](CCCCNC(=S)Nc1ccc2c(c1)C(=O)OC21c2ccc(O)cc2Oc2cc(O)ccc21)NC3=O [Entry 1] | distribution of entry 1 throughout the cytoplasm and nucleus | distribution of entry 1 throughout the cytoplasm and nucleus |  | 
2 | CC(C)CN1C(=O)[C@@H]2C[C@@]3(CN2C(=O)[C@@]12C[C@H]1C(=O)N(Cc4ccc5ccccc5c4)[C@]4(C[C@H]5C(=O)N[C@@H](Cc6ccccc6)C(=O)N5C4)C(=O)N1C2)NC(=O)[C@H](CCCCNC(=S)Nc1ccc2c(c1)C(=O)OC21c2ccc(O)cc2Oc2cc(O)ccc21)NC3=O [Entry 3] |  |  | Significant uptake | 
3 | O=C1OC2(c3ccc(O)cc3Oc3cc(O)ccc32)c2ccccc21 [fluorescein, reference compound] | no visible uptake of fluorescence | no visible uptake of fluorescence |  | 
4 | COc1ccc(C2=N[C@@H](c3ccc(Cl)cc3)[C@@H](c3ccc(Cl)cc3)N2C(=O)N2CCNC(=O)C2)c(OC(C)C)c1 [nutlin-3a] |  |  |  | increase in p53 levels
